Experiment: Effect on lysosomal activation in mouse splenocytes at 100 ug/mL relative to control
Type: functional

Compound | Activity
CC(=O)OC[C@]1(C)[C@@H]2CC[C@@]3(C)c4cocc4CC[C@@H]3[C@@]2(C)CC[C@@H]1OC(C)=O | 130%
CC(=O)OC[C@@]1(C)CCC[C@]2(C)[C@H]3CCc4cocc4[C@]3(C)CC[C@@H]12 | 130%
